# Literature values, collected in US20120231098A1, “Weight loss composition” (priority 2011, published 2012).
# Details: by increasing the utilization of fat stores in the body during exercise
smiles,measurement,value
"Cn1c(=O)c2c(ncn2C)n(C)c1=O [Caffeine, caffeine]",increase in endurance,≥ 15%
